{"source": "paper PMC6072853", "about": "(Frontiers in Pharmacology, 2018)", "key": {"MCF-7": {"tested_on": "MCF-7", "assay": "MTT antiproliferative assay, MCF-7", "format": "cell-based, human", "details": "Homo sapiens, MCF7, 72 h, read-out: Growth inhibition (%) ± SEM; for inhibition at 10 µM: MCF-7, 10 μM; for inhibition at 30 µM: MCF-7, 30 μM", "text": "(§1) Gynecological cancer cell lines, including ovarian (A2780), cervical (HeLa), and breast cancer cell lines (MCF7, T47D, MDA-MB-231, and MDA-MB-361) were purchased from the European Collection of Authenticated Cell Cultures (ECACC, Salisbury, United Kingdom). Additional cervical cell lines (SiHa and C33A) and a non-cancerous immortalized, mammary gland epithelial cell line (hTERT-HME1) were purchased from LGC Standards GmbH (Wesel, Germany). Non-cancerous fibroblast cells (MRC-5) were also obtained from the ECACC. All cells were cultured in minimal essential medium supplemented with 10% fetal bovine serum, 1% non-essential amino acids, and 1% antibiotic-antimycotic mixture, in humidified air containing 5% CO2 at 37°C. Immortalized hTERT-HME1 cells were maintained in serum-free mammary epithelial cell growth medium (MEGM) supplemented with insulin, human epidermal growth factor (hEGF), hydrocortisone, bovine pituitary extract, and an antibiotic-antimycotic mixture. All the medium and supplements were purchased from Lonza Group Ltd. (Basel, Switzerland).\n(§2) The antiproliferative properties of the compounds were assessed by an MTT assay ([Mosmann, 1983]). Cells were seeded onto 96-well microplates at a density of 10,000 cells/well (MDA-MB-361 and C33A) or 5,000 cells/well (all other cell lines). After an overnight incubation, fresh medium containing the test compounds (at a concentration of 10 or 30 μM) was added. After incubation for 72 h at 37°C in humidified air, [3-(4,5-dimethylthiazol-2-yl)-2,5-diphenyltetrazolium bromide] (MTT) solution (5 mg/mL) was added. Purple formazan crystals were formed by the living cells during a 4 h contact period, which were assayed by spectrophotometry after having been dissolved in 100 μL DMSO. Untreated cells served as control, and cisplatin (CIS) (Ebewe Pharma GmbH, Unterach, Austria) was used as a reference compound. […] Two independent measurements were performed with five parallel wells. To present preliminary data concerning tumor selectivity of the potent compounds, the procedure was repeated on MRC-5 fibroblast and hTERT-HME1 immortalized mammary gland epithelial cells under the same experimental conditions."}, "SiHa": {"tested_on": "SiHa", "assay": "MTT antiproliferative assay, SiHa", "format": "cell-based, human", "details": "Homo sapiens, 72 h, read-out: Growth inhibition (%) ± SEM", "text": "as §1, §2"}, "HeLa cells": {"tested_on": "HeLa cells", "assay": "Flow cytometric analysis of cell cycle", "format": "cell-based, human", "experimental": "The distribution of cells in different cell cycle phases (subG1, G1, S and G2/M) was analyzed via the measurement of cellular DNA content by flow cytometry. HeLa cells were seeded onto 6-well plates and allowed to stand for an overnight. The cells were treated with the selected compounds for 24, 48, or 72 h. Then cells were harvested, washed and fixed in ice cold 70% ethanol and stored at −20°C at least for an hour. Next, a DNA staining solution (containing distilled water, propidium-iodide, Triton-X100, sodium citrate, and ribonuclease-A) was added to each sample and stored in the dark at room temperature for an hour. Stained cells were analyzed by flow cytometry (Partec CyFlow, Partec GmbH, Munster, Germany) with at least 20,000 cells being evaluated for each analysis. Data processing was performed using the ModFit LT 3.3.11 software (Verity Software House, Topsham, ME, United States)."}, "MDA-MB-361": {"tested_on": "MDA-MB-361", "assay": "MTT antiproliferative assay, MDA-MB-361", "format": "cell-based, human", "details": "Homo sapiens, 72 h, read-out: Growth inhibition (%) ± SEM; for inhibition at 10 µM: MDA-MB-361, 10 μM; for inhibition at 30 µM: MDA-MB-361, 30 μM", "text": "as §1, §2"}, "MDA-MB-231": {"tested_on": "MDA-MB-231", "assay": "MTT antiproliferative assay, MDA-MB-231", "format": "cell-based, human", "details": "Homo sapiens, 72 h, read-out: Growth inhibition (%) ± SEM; for inhibition at 10 µM: MDA-MB-231, 10 μM; for inhibition at 30 µM: MDA-MB-231, 30 μM", "text": "as §1, §2"}, "C33A": {"tested_on": "C33A", "assay": "MTT antiproliferative assay, C33A", "format": "cell-based, human", "details": "Homo sapiens, C-33-A, 72 h, read-out: Growth inhibition (%) ± SEM", "text": "as §1, §2"}, "[1]": {"target": "T1, human androgenic receptor (Homo sapiens, UniProt P10275)", "T1 construct": "host or cells: Saccharomyces cerevisiae", "T1 sequence (P10275 1-920)": "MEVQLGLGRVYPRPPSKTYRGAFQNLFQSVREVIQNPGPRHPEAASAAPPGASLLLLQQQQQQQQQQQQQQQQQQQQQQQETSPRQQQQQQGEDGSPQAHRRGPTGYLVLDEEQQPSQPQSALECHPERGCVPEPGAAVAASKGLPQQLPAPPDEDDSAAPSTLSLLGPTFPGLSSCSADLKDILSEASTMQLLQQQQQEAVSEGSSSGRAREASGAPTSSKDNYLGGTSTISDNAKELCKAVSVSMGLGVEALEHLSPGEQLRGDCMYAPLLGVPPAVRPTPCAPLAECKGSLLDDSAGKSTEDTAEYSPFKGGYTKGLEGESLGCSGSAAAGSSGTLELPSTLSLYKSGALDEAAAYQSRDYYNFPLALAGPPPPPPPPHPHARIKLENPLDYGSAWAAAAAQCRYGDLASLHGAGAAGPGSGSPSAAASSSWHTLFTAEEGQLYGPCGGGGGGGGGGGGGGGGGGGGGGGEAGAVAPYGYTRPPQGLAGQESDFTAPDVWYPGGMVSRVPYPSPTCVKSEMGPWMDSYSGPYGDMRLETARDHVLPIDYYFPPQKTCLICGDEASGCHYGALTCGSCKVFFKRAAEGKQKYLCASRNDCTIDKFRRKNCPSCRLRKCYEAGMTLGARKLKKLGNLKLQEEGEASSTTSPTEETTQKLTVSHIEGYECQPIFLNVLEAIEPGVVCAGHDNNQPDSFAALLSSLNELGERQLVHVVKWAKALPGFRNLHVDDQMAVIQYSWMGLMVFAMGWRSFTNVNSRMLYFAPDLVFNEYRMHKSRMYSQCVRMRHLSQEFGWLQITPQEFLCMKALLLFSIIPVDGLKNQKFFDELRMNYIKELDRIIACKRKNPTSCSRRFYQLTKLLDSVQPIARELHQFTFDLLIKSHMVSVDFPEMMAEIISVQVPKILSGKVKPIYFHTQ", "assay": "Yeast-based androgenic reporter assay, agonistic", "format": "cell-based", "details": "read-out: Calculated EC50 values, androgenic activity", "description": "Genetically modified yeast cells (Saccharomyces cerevisiae) containing the human androgenic receptor gene integrated into a yeast chromosome, as well as an expression plasmid with the sequences of both the androgen responsive element and a lacZ reporter gene were cultured in humidified air at 31°C with agitation for 2 days. The appropriate concentrations of the test compounds and a CPRG substrate solution (chlorophenol red-β-D-galactopyranoside) for β-galactosidase were added into a 96-well microplate according to the instructions of the manufacturer. Androgen agonistic and antagonistic properties of the test compounds were determined by a colorimetric assay. For the antagonistic measurements the medium was supplemented with 5α-dihydrotestosterone (DHT). Once the reporter gene is expressed, β-galactosidase is secreted into the medium, and converts the yellow CPRG substrate into a red product, which can be quantified at 570 nm. Quantities of this red product correlate with the liberation of β-galactosidase, which is increased when an agonistic effect is present, while it is decreased when the test compound exerts an antagonistic effect. For the agonistic and antagonistic assays, nandrolone (1) and flutamide were used as reference agents, respectively."}}, "data": [{"smiles": "C[C@]12CC[C@H]3[C@@H](CCC4=CC(=O)CC[C@@H]43)[C@@H]1CC[C@@H]2O", "note": "[Compound 1, 19-nortestosterone, reference compound]", "values": [{"measurement": "inhibition at 10 µM", "setting": "MCF-7", "result": "< 20", "unit": "%"}, {"measurement": "inhibition at 30 µM", "setting": "MCF-7", "result": "< 20", "unit": "%"}, {"measurement": "inhibition at 10 µM", "setting": "SiHa", "result": "< 20", "unit": "%"}, {"measurement": "inhibition at 30 µM", "setting": "SiHa", "result": "20.7 ± 2.6", "unit": "%"}, {"measurement": "effect on cell cycle phase distribution", "setting": "HeLa cells; 24 h", "result": "significant decrease in the G1 and a moderate but significant increase in the G2/M phase cell population"}, {"measurement": "effect on cell cycle phase distribution", "setting": "HeLa cells; 48 h", "result": "these changes became more pronounced"}, {"measurement": "effect on cell cycle phase distribution", "setting": "HeLa cells; 72 h", "result": "concentration-dependent accumulation of hypodiploid cells"}, {"measurement": "inhibition at 10 µM", "setting": "MDA-MB-361", "result": "< 20", "unit": "%"}, {"measurement": "inhibition at 30 µM", "setting": "MDA-MB-361", "result": "< 20", "unit": "%"}, {"measurement": "inhibition at 10 µM", "setting": "MDA-MB-231", "result": "< 20", "unit": "%"}, {"measurement": "inhibition at 30 µM", "setting": "MDA-MB-231", "result": "21.4 ± 1.2", "unit": "%"}, {"measurement": "inhibition at 10 µM", "setting": "C33A", "result": "< 20", "unit": "%"}, {"measurement": "inhibition at 30 µM", "setting": "C33A", "result": "25.2 ± 1.7", "unit": "%"}]}, {"smiles": "C[C@]12CC[C@H]3[C@@H](CCC4=CC(=O)CC[C@@H]43)[C@@H]1CC[C@H]2Cl", "note": "[Compound 3]", "values": [{"measurement": "inhibition at 10 µM", "setting": "MCF-7", "result": "< 20", "unit": "%"}, {"measurement": "inhibition at 30 µM", "setting": "MCF-7", "result": "36.9 ± 2", "unit": "%"}, {"measurement": "EC50", "setting": "[1]", "result": 3.8, "unit": "µM"}, {"measurement": "inhibition at 10 µM", "setting": "SiHa", "result": "< 20", "unit": "%"}, {"measurement": "inhibition at 30 µM", "setting": "SiHa", "result": "26 ± 2.3", "unit": "%"}, {"measurement": "effect on cell cycle phase distribution", "setting": "HeLa cells; 24 h", "result": "did not have any remarkable effect on cell cycle"}, {"measurement": "effect on cell cycle phase distribution", "setting": "HeLa cells; 48 h", "result": "substantially elevated increase of the subG1 population at the expense of G1 cells"}, {"measurement": "inhibition at 10 µM", "setting": "MDA-MB-361", "result": "< 20", "unit": "%"}, {"measurement": "inhibition at 30 µM", "setting": "MDA-MB-361", "result": "21.8 ± 2.5", "unit": "%"}, {"measurement": "inhibition at 10 µM", "setting": "MDA-MB-231", "result": "< 20", "unit": "%"}, {"measurement": "inhibition at 30 µM", "setting": "MDA-MB-231", "result": "< 20", "unit": "%"}, {"measurement": "inhibition at 10 µM", "setting": "C33A", "result": "< 20", "unit": "%"}, {"measurement": "inhibition at 30 µM", "setting": "C33A", "result": "61.7 ± 1.7", "unit": "%"}]}]}
